Converted amounts (≈) assume the structure as drawn.
Tested on: SAUR 9218
Assay: MIC Test Method, standard agar dilution
Type: cell-based
Details: agar dilution, Mueller Hinton agar, incubated overnight at 35° C., lowest concentration that inhibits visible growth; for MIC: read-out: SAUR 9218 MIC
Outline: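 Agar dilution in Mueller Hinton agar with serial 2-fold compound dilutions. Staphylococcus aureus strain 9218 spotted at approximately 10^4 to 10^5 cells per spot, incubated overnight at 35 °C; MIC (μg/ml) is the lowest concentration preventing visible growth.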

SMILES	MIC	SAUR 9218 MIC
CN(C(=O)Nc1ccc2cc(C(=O)Nc3ccc(C#N)cc3C(=O)O)n(C)c2c1)c1ccccc1	0.5 µg/mL (≈ 1.07 µM)	–
CCCCS(=O)(=O)N(c1ccc2cc(C(=O)Nc3ccc(C#N)cc3C(=O)O)n(C)c2c1)S(=O)(=O)CCCC	2 µg/mL (≈ 3.48 µM)	–
N#Cc1ccc(NC(=O)c2ccc(SC3CCOCC3)nc2)c(C(=O)O)c1	0.125 µg/mL (≈ 0.326 µM)	–
N#Cc1ccc(NC(=O)c2cc(CN(CCO)CCO)on2)c(C(=O)O)c1	8 µg/mL (≈ 21.4 µM)	–
O=C(Nc1ccc(Br)cc1C(=O)O)c1ccc(Br)s1	16 µg/mL (≈ 39.5 µM)	–
N#Cc1ccc(NC(=O)c2cc3cccc(NC(=O)COc4ccccc4)c3[nH]2)c(C(=O)O)c1	0.5 µg/mL (≈ 1.1 µM)	–
N#Cc1ccc(NC(=O)c2cncc(Br)c2)c(C(=O)O)c1	8 µg/mL (≈ 23.1 µM)	–
COc1ccc2c(C(=O)Nc3ccc(C#N)cc3C(=O)O)noc2c1	0.5 µg/mL (≈ 1.48 µM)	–
N#Cc1ccc(NC(=O)c2nc(-c3ccccc3)cs2)c(C(=O)O)c1	8 µg/mL (≈ 22.9 µM)	–
Cn1c(C(=O)Nc2ccc(C#N)cc2C(=O)O)cc2cccc(O)c21	1 µg/mL (≈ 2.98 µM)	–
Cc1noc(C)c1-c1ccc2c(C(=O)Nc3ccc(C#N)cc3C(=O)O)noc2c1	0.125 µg/mL (≈ 0.311 µM)	–
CCC(CC)Oc1ccccc1-c1cc(C(=O)Nc2ccc(C#N)cc2C(=O)O)no1	4 µg/mL (≈ 9.54 µM)	–
O=C(Nc1ccc(Br)cc1C(=O)O)c1csc(S(=O)(=O)NC2CCN(Cc3ccccc3)CC2)c1	64 µg/mL (≈ 111 µM)	–
N#Cc1ccc(NC(=O)c2cc3cccc(NC(=O)Cc4cccc(F)c4)c3[nH]2)c(C(=O)O)c1	0.25 µg/mL (≈ 0.548 µM)	–
CCN(C(C)=O)c1ccc2onc(C(=O)Nc3ccc(C#N)cc3C(=O)O)c2c1	0.25 µg/mL (≈ 0.637 µM)	–
N#Cc1ccc(NC(=O)c2noc3cc(NS(=O)(=O)c4ccc(F)cc4)ccc23)c(C(=O)O)c1	0.5 µg/mL (≈ 1.04 µM)	–
CCCCCOc1cccc2cc(C(=O)Nc3ccc(C#N)cc3C(=O)O)n(C)c12	0.125 µg/mL (≈ 0.308 µM)	–
Cc1ccsc1C(=O)Nc1ccc(Br)cc1C(=O)O	> 128 µg/mL	–
N#Cc1ccc(NC(=O)c2cc3cccc(NC(=O)C4CC4)c3[nH]2)c(C(=O)O)c1	1 µg/mL (≈ 2.57 µM)	–
O=C(O)c1cc(Cl)ccc1NC(=O)c1cc2ccccc2n1CC1CCCCC1	0.5 µg/mL (≈ 1.22 µM)	–
O=C(Nc1ccc(Br)cc1C(=O)O)c1ncc(-c2ccccc2C(F)(F)F)o1	1 µg/mL (≈ 2.2 µM)	–
COc1ccc(-c2cc(C(=O)Nc3ccc(Br)cc3C(=O)O)nn2C)cc1	> 128 µg/mL	–
Cn1c(C(=O)Nc2ccc(C#N)cc2C(=O)O)cc2ccc(N(S(=O)(=O)c3ccccc3)S(=O)(=O)c3ccccc3)cc21	0.5 µg/mL (≈ 0.813 µM)	–
N#Cc1ccc(NC(=O)c2cc(-c3ccccc3OCC3CCC3)on2)c(C(=O)O)c1	0.125 µg/mL (≈ 0.299 µM)	–

SMILES	MIC	SAUR 9218 MIC
Nc1ccc(CCNS(=O)(=O)c2cc(C(=O)Nc3ccc(Br)cc3C(=O)O)cs2)cc1	128 µg/mL (≈ 244 µM)	–
Cc1sc(C(=O)Nc2ccc(C#N)cc2C(=O)O)cc1S(=O)(=O)N(C)C(C)C(O)c1ccccc1 (stereo not drawn) [drawing 960]	–	128 µg/mL
N#Cc1ccc(NC(=O)c2cc(-c3ccccc3Cl)on2)c(C(=O)O)c1	0.125 µg/mL (≈ 0.34 µM)	–
Cn1c(C(=O)Nc2ccc(C#N)cc2C(=O)O)cc2cccc(OCC(O)CCl)c21 (stereo not drawn)	0.25 µg/mL (≈ 0.584 µM)	–
Cn1c(C(=O)Nc2ccc(C#N)cc2C(=O)O)cc2cccc(NC(=O)NCC(O)CO)c21 (stereo not drawn)	4 µg/mL (≈ 8.86 µM)	–
CCCn1c(C(=O)Nc2ccc(Cl)cc2C(=O)O)cc2ccccc21	4 µg/mL (≈ 11.2 µM)	–
O=C(O)c1cc(Br)ccc1NC(=O)c1cc(Cl)cc[n+]1[O-]	> 128 µg/mL	–
O=C(Nc1ccc(Br)cc1C(=O)O)c1csc(S(=O)(=O)N2CCN(c3ccc(Cl)cc3)CC2)c1	32 µg/mL (≈ 54.7 µM)	–
COc1ncc(C#Cc2cncc(C(=O)Nc3ccc(C#N)cc3C(=O)O)c2)c(OC)n1	> 128 µg/mL	–
Cc1nc(S(=O)(=O)Nc2cccc3cc(C(=O)Nc4ccc(C#N)cc4C(=O)O)n(C)c23)cn1C	1 µg/mL (≈ 2.03 µM)	–
O=C(O)c1cc(Cl)ccc1/C=C/c1cc(-c2ccccc2)on1	32 µg/mL (≈ 98.2 µM)	–
N#Cc1ccc(NC(=O)c2noc3ccc(-c4ccccc4C(F)(F)F)cc23)c(C(=O)O)c1	0.125 µg/mL (≈ 0.277 µM)	–
Cn1c(C(=O)Nc2ccc(C#N)cc2C(=O)O)cc2ccc(NC(=O)N3CCOCC3)cc21	4 µg/mL (≈ 8.94 µM)	–
CCCCn1c(C(=O)Nc2ccc(C#N)cc2C(=O)O)cc2ccccc21	32 µg/mL (≈ 88.5 µM)	–
N#Cc1ccc(NC(=O)c2cc3cccc4c3n2CCC4O)c(C(=O)O)c1 (stereo not drawn)	0.5 µg/mL (≈ 1.38 µM)	–
COc1ccc(-c2ccc3cc(C(=O)Nc4ccc(C#N)cc4C(=O)O)n(C)c3c2)c(OC)c1OC	0.25 µg/mL (≈ 0.515 µM)	–
N#Cc1ccc(NC(=O)c2cc(CCl)on2)c(C(=O)O)c1	4 µg/mL (≈ 13.1 µM)	–
CCCCSc1cnc(C(=O)Nc2ccc(C#N)cc2C(=O)O)cn1	0.125 µg/mL (≈ 0.351 µM)	–
O=C(Nc1ccc(Br)cc1C(=O)O)c1cc(SCc2ccccc2)on1	0.125 µg/mL (≈ 0.288 µM)	–
Cn1c(C(=O)Nc2ccc(C#N)cc2C(=O)O)c(Br)c2cccc(OCc3ccccc3)c21	1 µg/mL (≈ 1.98 µM)	–
N#Cc1ccc(NC(=O)c2cc(-c3ccccc3)no2)c(C(=O)O)c1	0.5 µg/mL (≈ 1.5 µM)	–
CCCOc1ccccc1C(=O)Nc1cccc2cc(C(=O)Nc3ccc(C#N)cc3C(=O)O)[nH]c12	1 µg/mL (≈ 2.07 µM)	–
COCC1CCCN1S(=O)(=O)c1cc(C(=O)Nc2ccc(C#N)cc2C(=O)O)sc1C (stereo not drawn)	64 µg/mL (≈ 138 µM)	–
CCCCN(CC)S(=O)(=O)c1cc(C(=O)Nc2ccc(C#N)cc2C(=O)O)sc1C	8 µg/mL (≈ 17.8 µM)	–
